# Source: US7419780B2, “Methods and assays for screening protein targets” (The Trustees of Columbia University in the City of New York, priority 2000, dated 2008)
# Columns and labels:
# Type in all cases: cell-based, S. cerevisiae
# Settings in all cases: 1 uM small molecule, difference to activity without small molecule, average of two trials
# [1] = target: T1, LexA eDHFR / B42 gly6rGR2 (UniProt P06536+P0ABQ4, C656G/F620S); assay: β-galactosidase activity assay, strain V375Y
# T1 construct: rat Glucocorticoid Receptor (aa 524-795) with point mutations; expressed in transfected cells; host or cells: S. cerevisiae FY250
# T1 sequence (P0ABQ4 1-159): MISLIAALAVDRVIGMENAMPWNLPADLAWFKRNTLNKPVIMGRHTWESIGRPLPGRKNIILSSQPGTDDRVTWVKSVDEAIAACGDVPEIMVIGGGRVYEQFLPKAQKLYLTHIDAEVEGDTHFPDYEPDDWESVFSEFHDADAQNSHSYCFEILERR
# T1 sequence (P06536 524-795 F620S/C656G limits assumed): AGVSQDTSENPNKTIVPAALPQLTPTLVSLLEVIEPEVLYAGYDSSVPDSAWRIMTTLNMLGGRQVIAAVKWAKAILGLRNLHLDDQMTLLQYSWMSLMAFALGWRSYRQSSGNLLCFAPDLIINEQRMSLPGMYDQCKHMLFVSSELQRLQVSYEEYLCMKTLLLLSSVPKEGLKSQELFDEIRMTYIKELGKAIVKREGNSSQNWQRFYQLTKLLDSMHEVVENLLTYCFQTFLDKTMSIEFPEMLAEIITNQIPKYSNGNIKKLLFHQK
# Source text: (§1) Table III explains the components of each strain. Each strain was constructed from the parent yeast strain FY250 and also contains the pMW106 plasmid, which has the LacZ reporter gene that is turned on only in when the LexA DNA binding domain and the B42 activation are brought in tot he vicinity of each other. We use several different strains because we use DHFR from two different species, mDHFR is from murine, while eDHFR is from E. coli. We are asl oable to switch the small moleculebinding domains. For example, the strain containing LexA-eDHFR with B42-rGH2 is a different strain and behaves differently from the strain containing LexA-rGR2 with B42-eDHFR. We also put in short 6 amino acid linkers between the two domains of our protein chimeras and thus these are different strain as well.
# (§2) The results in Table IV are averages of two separate trials. Each strain was examined with small molecules and without small molecules. The absolute activity is given as the β-galactisidase activity […]. The average β-galactosidse activity for a strain without small molecule (i.e. the negative control) was about 100 β-galactosidase units.
# [2] = target: T2, LexA (GSG)2eDHFR / B42 gly6rGR2 (UniProt P06536+P0ABQ4, C656G/F620S); assay: β-galactosidase activity assay, strain V499Y
# T2 construct: rat Glucocorticoid Receptor (aa 524-795) with point mutations; expressed in transfected cells; host or cells: S. cerevisiae FY250
# T2 sequence (P0ABQ4 1-159): T1 sequence (P0ABQ4 1-159)
# T2 sequence (P06536 524-795 F620S/C656G limits assumed): T1 sequence (P06536 524-795 F620S/C656G limits assumed)
# Source text: as §1, §2
# [3] = target: T3, LexA rGR2 / B42 (GSG)2eDHFR (UniProt P06536+P0ABQ4, C656G/F620S); assay: β-galactosidase activity assay, strain V509Y
# T3 construct: expressed in transfected cells; host or cells: S. cerevisiae FY250 with pMW106 lacZ reporter
# T3 sequence (P06536 524-795 F620S/C656G limits assumed): T1 sequence (P06536 524-795 F620S/C656G limits assumed)
# T3 sequence (P0ABQ4 1-159): T1 sequence (P0ABQ4 1-159)
# Source text: as §1, §2
# LexA rGR2 / B42 mDHFR = target: T4, LexA rGR2 / B42 mDHFR (UniProt P00375+P06536, C656G/F620S); assay: β-galactosidase activity assay, strain V507Y
# T4 construct: rat Glucocorticoid Receptor (aa 524-795) with point mutations; expressed in transfected cells; host or cells: S. cerevisiae FY250
# T4 sequence (P06536 524-795 F620S/C656G limits assumed): T1 sequence (P06536 524-795 F620S/C656G limits assumed)
# T4 sequence (P00375 1-187): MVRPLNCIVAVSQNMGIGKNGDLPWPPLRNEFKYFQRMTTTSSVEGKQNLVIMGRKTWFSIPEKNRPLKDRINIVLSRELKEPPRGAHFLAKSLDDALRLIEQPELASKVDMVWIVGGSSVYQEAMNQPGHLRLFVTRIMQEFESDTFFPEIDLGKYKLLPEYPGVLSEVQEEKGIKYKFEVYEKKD
# Source text: as §1, §2
# [4] = target: T5, LexA mDHFR / B42 (GSG)rGR2 (UniProt P00375+P06536, C656G/F620S); assay: β-galactosidase activity assay, strain V497Y
# T5 construct: rat Glucocorticoid Receptor (aa 524-795) with point mutations; expressed in transfected cells; host or cells: S. cerevisiae FY250
# T5 sequence (P00375 1-187): T4 sequence (P00375 1-187)
# T5 sequence (P06536 524-795 F620S/C656G limits assumed): T1 sequence (P06536 524-795 F620S/C656G limits assumed)
# Source text: as §1, §2
# [5] = target: T6, LexA (GSG)2eDHFR / B42 rGR2 (UniProt P06536+P0ABQ4, C656G/F620S); assay: β-galactosidase activity assay, strain V498Y
# T6 construct: rat Glucocorticoid Receptor (aa 524-795) with point mutations; expressed in transfected cells; host or cells: S. cerevisiae FY250
# T6 sequence (P0ABQ4 1-159): T1 sequence (P0ABQ4 1-159)
# T6 sequence (P06536 524-795 F620S/C656G limits assumed): T1 sequence (P06536 524-795 F620S/C656G limits assumed)
# Source text: as §1, §2
# [6] = target: T7, LexA (GSG)2mDHFR / B42 (GSG)rGR2 (UniProt P00375+P06536, C656G/F620S); assay: β-galactosidase activity assay, strain V504Y
# T7 construct: rat Glucocorticoid Receptor (aa 524-795) with point mutations; expressed in transfected cells; host or cells: S. cerevisiae FY250
# T7 sequence (P00375 1-187): T4 sequence (P00375 1-187)
# T7 sequence (P06536 524-795 F620S/C656G limits assumed): T1 sequence (P06536 524-795 F620S/C656G limits assumed)
# Source text: as §1, §2
# [7] = target: T8, LexA eDHFR / B42 (GSG)rGR2 (UniProt P06536+P0ABQ4, C656G/F620S); assay: β-galactosidase activity assay, strain V494Y
# T8 construct: rat Glucocorticoid Receptor (aa 524-795) with point mutations; expressed in transfected cells; host or cells: S. cerevisiae FY250
# T8 sequence (P0ABQ4 1-159): T1 sequence (P0ABQ4 1-159)
# T8 sequence (P06536 524-795 F620S/C656G limits assumed): T1 sequence (P06536 524-795 F620S/C656G limits assumed)
# Source text: as §1, §2
# [8] = target: T9, LexA rGR2 / B42 (GSG)2mDHFR (UniProt P00375+P06536, C656G/F620S); assay: β-galactosidase activity assay, strain V511Y
# T9 construct: expressed in transfected cells; host or cells: S. cerevisiae FY250 with pMW106 lacZ reporter
# T9 sequence (P06536 524-795 F620S/C656G limits assumed): T1 sequence (P06536 524-795 F620S/C656G limits assumed)
# T9 sequence (P00375 1-187): T4 sequence (P00375 1-187)
# Source text: as §1, §2
# LexA mDHFR / B42 rGR2 = target: T10, LexA mDHFR / B42 rGR2 (UniProt P00375+P06536, C656G/F620S); assay: β-galactosidase activity assay, strain V495Y
# T10 construct: rat Glucocorticoid Receptor (aa 524-795) with point mutations; expressed in transfected cells; host or cells: S. cerevisiae FY250
# T10 sequence (P00375 1-187): T4 sequence (P00375 1-187)
# T10 sequence (P06536 524-795 F620S/C656G limits assumed): T1 sequence (P06536 524-795 F620S/C656G limits assumed)
# Source text: as §1, §2
structure (smiles),measurement,setting,value
C[C@@H]1C[C@H]2C3CCC4=CC(=O)C=C[C@]4(C)[C@@]3(F)[C@@H](O)C[C@]2(C)[C@@]1(O)C(=O)NCCSCCCCCCCCCCSCC[C@H](NC(=O)c1ccc(N(C)Cc2cnc3nc(N)nc(N)c3n2)cc1)C(=O)O (stereo partly shown) [D10M],B-gal activity,[1],9993 β-galactosidase units
same,B-gal activity,[2],4013 β-galactosidase units
same,B-gal activity,[3],2028 β-galactosidase units
same,B-gal activity,LexA rGR2 / B42 mDHFR,−14 β-galactosidase units
same,B-gal activity,[4],308 β-galactosidase units
same,B-gal activity,[5],2926 β-galactosidase units
same,B-gal activity,[6],556 β-galactosidase units
same,B-gal activity,[7],9398 β-galactosidase units
same,B-gal activity,[8],−60 β-galactosidase units
same,B-gal activity,LexA mDHFR / B42 rGR2,513 β-galactosidase units
